Data from PubChem BioAssay AID1963843 (Molecular Pharmacology Branch, DTP, NCI, 2024).

Tested on: 616215-338-R-J1-PDC complex spheroid viability
Test: Anticancer human tumor 616215-338-R-J1-PDC patient-derived colon adenocarcinoma cell line growth inhibition [POLQ]
Conditions: for IC50: curve of first compound; for viability, T/C: stronger effect = lower value
Procedure, shortened: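 Patient-derived tumour cells were co-cultured with HUVEC and mesenchymal stem cells as multicellular spheroids at 37 °C. They were treated with POLQ inhibitors (novobiocin, ART-558, RP6685) alone or combined with other agents. Top concentrations were at or near clinical Cmax (otherwise 10 microM; SN-38 at 1 microM), decreasing in half-log steps.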
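Note: spheroids exposed to compounds for one week before readout.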
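Throughout, for viability, T/C: percent viability relative to DMSO vehicle wells taken as 100%.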

CC1COCCN1c1cc(C2(O)CC3CCC(C2)O3)c2cnn(-c3ccn[nH]3)c2n1 (configuration not stated) + Nc1ccc(C#CCN(C(=O)Cc2ncc(C(F)(F)F)cc2C(F)(F)F)c2ccc(F)cc2)nn1
IC50 (second compound 0.0316 µM): 337 nM | IC50 (second compound 0.1 µM): 276 nM | IC50 (second compound 0.316 µM): 271 nM | IC50 (second compound 1 µM): 250 nM | IC50 (second compound 3.16 µM): 143 nM | IC50 (second compound 10 µM): 160 nM | viability, T/C (second compound 0.0316 µM, first compound 0.0316 µM): 94.8% | viability, T/C (second compound 0.0316 µM, first compound 0.1 µM): 67.6% | viability, T/C (second compound 0.0316 µM, first compound 0.316 µM): 52.2% | viability, T/C (second compound 0.0316 µM, first compound 1 µM): 37.1% | viability, T/C (second compound 0.0316 µM, first compound 3.16 µM): 24.3% | viability, T/C (second compound 0.0316 µM, first compound 10 µM): 17.9% | viability, T/C (second compound 0.1 µM, first compound 0.0316 µM): 98.6% | viability, T/C (second compound 0.1 µM, first compound 0.1 µM): 76.6% | viability, T/C (second compound 0.1 µM, first compound 0.316 µM): 37.8% | viability, T/C (second compound 0.1 µM, first compound 1 µM): 38.1% | viability, T/C (second compound 0.1 µM, first compound 3.16 µM): 24.3% | viability, T/C (second compound 0.1 µM, first compound 10 µM): 15.3% | viability, T/C (second compound 0.316 µM, first compound 0.0316 µM): 93.8% | viability, T/C (second compound 0.316 µM, first compound 0.1 µM): 76.3% | viability, T/C (second compound 0.316 µM, first compound 0.316 µM): 42% | viability, T/C (second compound 0.316 µM, first compound 1 µM): 35.2% | viability, T/C (second compound 0.316 µM, first compound 3.16 µM): 27.6% | viability, T/C (second compound 0.316 µM, first compound 10 µM): 19.9% | viability, T/C (second compound 1 µM, first compound 0.0316 µM): 94.1% | viability, T/C (second compound 1 µM, first compound 0.1 µM): 69.1% | viability, T/C (second compound 1 µM, first compound 0.316 µM): 39.5% | viability, T/C (second compound 1 µM, first compound 1 µM): 36.8% | viability, T/C (second compound 1 µM, first compound 3.16 µM): 28.6% | viability, T/C (second compound 1 µM, first compound 10 µM): 18.5% | viability, T/C (second compound 3.16 µM, first compound 0.0316 µM): 92.8% | viability, T/C (second compound 3.16 µM, first compound 0.1 µM): 54.9% | viability, T/C (second compound 3.16 µM, first compound 0.316 µM): 36.3% | viability, T/C (second compound 3.16 µM, first compound 1 µM): 26.7% | viability, T/C (second compound 3.16 µM, first compound 3.16 µM): 27.3% | viability, T/C (second compound 3.16 µM, first compound 10 µM): 14.6% | viability, T/C (second compound 10 µM, first compound 0.0316 µM): 101% | viability, T/C (second compound 10 µM, first compound 0.1 µM): 56.2% | viability, T/C (second compound 10 µM, first compound 0.316 µM): 36.6% | viability, T/C (second compound 10 µM, first compound 1 µM): 26.9% | viability, T/C (second compound 10 µM, first compound 3.16 µM): 24.2% | viability, T/C (second compound 10 µM, first compound 10 µM): 9.04%
